These results are taken from patent publication US10399953B2, “Preparation of furan fatty acids from 5-(chloromethyl)furfural” (THE REGENTS OF THE UNIVERSITY OF CALIFORNIA, priority 2015, dated 2019).

This experiment can be described thus: 2,2-diphenyl-1-picrylhydrazyl (DPPH) radical scavenging assay. Format: biochemical. The settings on record: for DPPH Scavenging %: 30 minutes, room temperature, dark, absorption at 517 nm; for antioxidant activity (quenching of the DPPH radical), in words: 25, 50 and 100 μg/mL. The text has this: The antioxidant activity of the FFAs has been evaluated by a range of methods, including spin trapping of N-oxide radicals (Okada et al. (1996) Biol. Pharm. Bull. 19: 1607), inhibition of radically initiated oxygen uptake in linoleic acid (Okada et al. (1990) J. Am. Oil Chem. Soc. 67: 858) and unsaturated fatty acid moieties of phosphatidyl choline liposomes (Ishii et al. (1989) Chem. Pharm. Bull. 37: 1396), and acting as a substrate for plant lipoxygenase (Batna and Spiteller (1994) Lipids 29: 397). We have evaluated the free radical scavenging abilities of synthetic FFAs 5a (n=1, m=9, R^1=R^2=H) and 5b (n=1, m=9, R^1=R^2=Me) against butylated hydroxytoluene (BHT) by 2,2-diphenyl-1-picrylhydrazyl (DPPH) assay.
The method of Moon and Shibamoto (Moon and Shibamoto (2009) J. Agric. Food Chem. 57: 1655) was used to evaluate antioxidant activity. DPPH (0.0177 g) was dissolved in methanol (MeOH) (100 mL) and 500 μL of this solution was added into test tubes containing 11-(5-propylfuran-2-yl)undecanoic acid and 11-(3,4-dimethyl-5-propylfuran-2-yl)undecanoic acid at concentrations of 25, 50, and 100 μg/mL after dilution of stock solutions with MeOH to 1.0 mL total volume. A 1.0 mg/mL BHT stock solution (100 μL) was diluted with 400 μL methanol and the DPPH solution (500 μL). A control solution was prepared by adding methanol (500 μL) into the DPPH solution (500 μL), and a methanol blank was used for the baseline correction. The tubes were allowed to stand at room temperature in the dark for 30 minutes and the change in the absorption at 517 nm was measured by UV-visible spectrometry. Radical scavenging ability was expressed as DPPH scavenging % and calculated using this formula: DPPH scavenging %=(control abs.−sample abs./control abs.)×100.

The structures appear in SMILES notation.

In the case of `Cc1cc(C(C)(C)C)c(O)c(C(C)(C)C)c1` [BHT, butylated hydroxytoluene, reference compound], under “100 μg/mL”, the “inhibition (DPPH assay)” value is reported as 93% and the “DPPH Scavenging %” value stood at 93%.
As to `CCCc1ccc(CCCCCCCCCCC(=O)O)o1` [Compound 5a, 11-(5-Propylfuran-2-yl)undecanoic Acid], the “antioxidant activity (quenching of the DPPH radical), in words” value is listed as “virtually no antioxidant activity”. Moreover, the “DPPH Scavenging %” value (25 μg/mL) is listed as 4%. Further, for the setting “50 μg/mL”, the “DPPH Scavenging %” value is reported as −2%. Further, the “DPPH Scavenging %” value (100 μg/mL) is listed as −3%.
Regarding `CCCc1oc(CCCCCCCCCCC(=O)O)c(C)c1C` [Compound 5b, 11-(3,4-Dimethyl-5-propylfuran-2-yl)undecanoic Acid], the “antioxidant activity (quenching of the DPPH radical), in words” value is “concentration-dependent quenching of the DPPH radical”. In addition, for the setting “25 μg/mL”, the “DPPH Scavenging %” value amounted to 7%. Moreover, the “DPPH Scavenging %” value (50 μg/mL) is given as 27%. In addition, under “100 μg/mL”, the “inhibition (DPPH assay)” value is given as 53% and the “DPPH Scavenging %” value is reported as 53%. For the same compound, the “antioxidant power relative to BHT on a mass basis” value (of BHT, mass basis, 100 μg/mL) amounted to 57%. Further, the “antioxidant power relative to BHT based on molar concentrations” value (of BHT, recalculated on molar concentrations) is on record as 83%.
